Our source for the IC50 values is patent US8642656B2, “Calixarene-based peptide conformation mimetics, methods of use, and methods of making” (priority 2004, dated 2014).

As usually defined, the IC50 is the concentration that gives 50% inhibition.

Read-outs that look alike come from different tables or passages of the source.

Experiment in all cases: LPS neutralization assay (Limulus amoebocyte lysate, QCL-1000)
Test [1] concerns LPS from E. coli serotype 0111:B4. It counts as biochemical. Conditions: read-out: IC50 values (μM) for LPS binding, E. coli 0111:B4. An excerpt:
(§1) The ability of compounds to neutralize endotoxin was detected in vitro by using the chromogenic QCL-1000 kit from BioWhittaker, Inc. (Walkersville, Md.), and as described in their protocol. This Limulus amoebocyte lysate (LAL) assay is quantitative for Gram negative bacterial endotoxin (lipopolysaccharide, LPS). In this assay compounds that are active inhibit the LPS-mediated activation of a proenzyme whose active form would release p-nitroaniline (pNA) from a colorless synthetic substrate producing a yellow color (pNA) whose absorption is monitored spectrophotometrically at 405-410 nm. The initial rate of enzyme activation is proportional to the concentration of endotoxin present.
(§2) Variants of LPS from six Gram negative bacteria were used: E. coli serotypes 0111:B4 (Combrex, Walkersville, Md.) and 055:B5 (Sigma, St. Louis, Mo.); Klebsiella pneumoniae (List Biologies, San Jose, Calif.); Pseudomonas aeruginosa (List Biologies, San Jose, Calif.); Salmonella typhimurium (List Biologies, San Jose, Calif.), and Serratia marcascens (List Biologies, San Jose, Calif.). The concentration of compound required to neutralize a given LPS and therefore to inhibit the Limulus amoebocyte lysate driven by 0.04 units of any given LPS was determined by dose response curves fit by using a standard sigmoidal function to determined the JC50 value for each lopomimetic compound. The 0.04 units corresponds to 0.01 ng LPS from E. coli serotype 055:B5, 0.01 ng LPS from E. coli serotype 0111:B4, 0.003 ng LPS from K. pneumoniae, 0.01 ng LPS from P. aeruginosa, 0.03 ng LPS from S. typhimurium, and 0.03 ng LPS from S. marcascens.

Test [2] has as its system LPS from E. coli serotype 055:B5. It counts as biochemical.
From the text: as §1, §2

Another test relates to LPS from P. aeruginosa. The test is classed as biochemical, Pseudomonas aeruginosa. The note with it: read-out: IC50 values (μM) for LPS binding, P.a.
From the text: as §1, §2

The test system of the next test is LPS from K. pneumoniae. It counts as biochemical, Klebsiella pneumoniae. The note with it: read-out: IC50 values (μM) for LPS binding, Klebsiella.
From the text: as §1, §2

The test system of a further test is LPS from S. typhimurium. The test is classed as biochemical, Salmonella typhimurium. The note with it: read-out: IC50 values (μM) for LPS binding, Salmonella.
From the text: as §1, §2

The next test deals with LPS from S. marcascens. It counts as biochemical, Serratia marcascens. The note with it: read-out: IC50 values (μM) for LPS binding, Serratia.
From the text: as §1, §2

The mark [3] stands for this setting: Table 3, errors estimated ±30%, read-out: IC50 values (μM) for LPS binding, E. coli 055:B5.
Where [4] appears, read: Table 2, read-out: IC50 values (μM) for LPS binding, E. coli 055:B4.

Take “5,11,17,23-Tetra-tert-butyl-25-(2-aminoethoxy)-27-(2-guanidinoethoxy)-26,28-dihydroxy Calix[4]arene trifluoroacetic acid salt [Compound 28]”: the IC50 in test [1] (Table 3, errors estimated ±30%) was over 5 µM; in test [2] (setting [3]) it was 4.1 µM; in the test with LPS from P. aeruginosa (Table 3, errors estimated ±30%), over 5 µM; in the test on LPS from K. pneumoniae (Table 3, errors estimated ±30%), over 5 µM; with LPS from S. typhimurium (Table 3, errors estimated ±30%) it was 2.6 µM; in the test with LPS from S. marcascens (Table 3, errors estimated ±30%), over 5 µM.
Regarding “5,17-Di-(2-methallyl)-11,23-diallyl-25,26,27,28-tetrakis-N—(N,N-dimethyl-2-aminoethyl) carbamoylmethoxy calix[4]arene [Compound 41]”, the IC50 in test [1] (Table 3, errors estimated ±30%) is 4.7 µM; in test [2] (setting [3]), 3.6 µM; with LPS from P. aeruginosa (Table 3, errors estimated ±30%), over 5 µM; in the test on LPS from K. pneumoniae (Table 3, errors estimated ±30%), over 5 µM; in the test on LPS from S. typhimurium (Table 3, errors estimated ±30%) it was over 5 µM; with LPS from S. marcascens (Table 3, errors estimated ±30%) it was over 5 µM.
With “5,17-Di-(2-methylpropyl)-11,23-dipropyl-25,26,27,28-tetrakis-N—(N,N-dimethyl-2-aminoethyl)carbamoylmethoxy calix[4]arene [Compound 17]”, the IC50 in test [1] (Table 3, errors estimated ±30%) was 3.7 µM; in test [2] (setting [3]) it was 3.8 µM; in the test on LPS from P. aeruginosa (Table 3, errors estimated ±30%), over 5 µM; with LPS from K. pneumoniae (Table 3, errors estimated ±30%), 2.1 µM; in the test on LPS from S. typhimurium (Table 3, errors estimated ±30%), 3.1 µM; in the test with LPS from S. marcascens (Table 3, errors estimated ±30%), over 5 µM.
For “5,17-Di-(hydroxycabonyl)ethyl-25,27-di-(3-methylbutoxy)-26,28-dihydroxycalix[4]arene [Compound 47]”, the IC50 is over 5 µM in test [1] (Table 2); over 5 µM in test [1] (Table 3, errors estimated ±30%); over 5 µM in test [2] (setting [4]); over 5 µM in test [2] (setting [3]); over 5 µM in the test with LPS from P. aeruginosa (Table 2); over 5 µM with LPS from P. aeruginosa (Table 3, errors estimated ±30%). Further, the 50% inhibitory concentration (IC50) in the test on LPS from K. pneumoniae (Table 2) was over 5 µM; in the test on LPS from K. pneumoniae (Table 3, errors estimated ±30%) it was over 5 µM; with LPS from S. typhimurium (Table 2) it was over 5 µM; with LPS from S. typhimurium (Table 3, errors estimated ±30%), over 5 µM; with LPS from S. marcascens (Table 2) it was over 5 µM; in the test on LPS from S. marcascens (Table 3, errors estimated ±30%), over 5 µM.
Regarding “25,27-Bis(2-guanidinoethoxy)-26,28-dihydroxy calix[4]arene trifluoroacetic acid salt [Compound 36]”, the IC50 in test [1] (Table 3, errors estimated ±30%) was 3.9 µM; in test [2] (setting [3]), 4.1 µM; with LPS from P. aeruginosa (Table 3, errors estimated ±30%), over 5 µM; in the test on LPS from K. pneumoniae (Table 3, errors estimated ±30%), over 5 µM; in the test with LPS from S. typhimurium (Table 3, errors estimated ±30%), over 5 µM; in the test with LPS from S. marcascens (Table 3, errors estimated ±30%) it was over 5 µM.
As to “25,27-Bis[N-(2-aminoethyl)carbamoylmethoxy]-26,28-dihydroxy calix[4]arene [Compound 39]”, the IC50 in test [1] (Table 2) was 1.6 µM; in test [1] (Table 3, errors estimated ±30%), over 5 µM; in test [2] (setting [4]), 0.9 µM; in test [2] (setting [3]), over 5 µM; in the test on LPS from P. aeruginosa (Table 2), 0.8 µM; in the test on LPS from P. aeruginosa (Table 3, errors estimated ±30%), over 5 µM. Further, the IC50 in the test with LPS from K. pneumoniae (Table 2) was 0.3 µM; in the test on LPS from K. pneumoniae (Table 3, errors estimated ±30%) it was over 5 µM; in the test on LPS from S. typhimurium (Table 2), 0.6 µM; with LPS from S. typhimurium (Table 3, errors estimated ±30%), over 5 µM; with LPS from S. marcascens (Table 2), 1.5 µM; in the test with LPS from S. marcascens (Table 3, errors estimated ±30%) it was over 5 µM.
As to “25,27-Bis[N—(N,N-dimethyl-2-aminoethyl)carbamoylmethoxy]-26,28-dihydroxy calix[4]arene [Compound 38]”, the IC50 was over 5 µM in test [1] (Table 3, errors estimated ±30%); over 5 µM in test [2] (setting [3]); over 5 µM in the test with LPS from P. aeruginosa (Table 3, errors estimated ±30%); over 5 µM in the test on LPS from K. pneumoniae (Table 3, errors estimated ±30%); over 5 µM in the test on LPS from S. typhimurium (Table 3, errors estimated ±30%); over 5 µM in the test with LPS from S. marcascens (Table 3, errors estimated ±30%).
In the case of `CC(C)(C)c1cc2c(OCC(=O)NCCN)c(c1)Cc1cc(C(C)(C)C)cc(c1OCC(=O)NCCN)Cc1cc(C(C)(C)C)cc(c1OCC(=O)NCCN)Cc1cc(C(C)(C)C)cc(c1OCC(=O)NCCN)C2` [Compound 4], the IC50 in test [1] (Table 2) was 2.7 µM; in test [1] (Table 3, errors estimated ±30%), 1.6 µM; in test [2] (setting [4]), 0.05 µM; in test [2] (setting [3]) it was 0.9 µM; with LPS from P. aeruginosa (Table 2), over 5 µM; in the test on LPS from P. aeruginosa (Table 3, errors estimated ±30%), 0.8 µM. Moreover, the IC50 in the test on LPS from K. pneumoniae (Table 2) was 0.4 µM; in the test with LPS from K. pneumoniae (Table 3, errors estimated ±30%), 0.3 µM; with LPS from S. typhimurium (Table 2) it was 0.8 µM; in the test with LPS from S. typhimurium (Table 3, errors estimated ±30%) it was 0.6 µM; with LPS from S. marcascens (Table 2), over 5 µM; with LPS from S. marcascens (Table 3, errors estimated ±30%) it was 1.5 µM.
Take `CCCc1cc2c(OCC(=O)NCCN(C)C)c(c1)Cc1cc(CCC)cc(c1OCC(=O)NCCN(C)C)Cc1cc(CCC)cc(c1OCC(=O)NCCN(C)C)Cc1cc(CCC)cc(c1OCC(=O)NCCN(C)C)C2` [Compound 11b]: the IC50 in test [1] (Table 3, errors estimated ±30%) was 2.7 µM; in test [2] (setting [3]) it was 0.05 µM; in the test on LPS from P. aeruginosa (Table 3, errors estimated ±30%), over 5 µM; in the test on LPS from K. pneumoniae (Table 3, errors estimated ±30%), 0.4 µM; with LPS from S. typhimurium (Table 3, errors estimated ±30%), 0.8 µM; in the test on LPS from S. marcascens (Table 3, errors estimated ±30%) it was over 5 µM.
As for `NCCNC(=O)COc1c2cccc1Cc1cccc(c1O)Cc1cccc(c1OCC(=O)NCCN)Cc1cccc(c1O)C2` [Compound 20], the IC50 was over 5 µM in test [1] (Table 2); over 5 µM in test [2] (setting [4]); over 5 µM in the test with LPS from P. aeruginosa (Table 2); over 5 µM in the test with LPS from K. pneumoniae (Table 2); 1.2 µM in the test with LPS from S. typhimurium (Table 2); over 5 µM in the test on LPS from S. marcascens (Table 2).
As to `CC(C)CCOc1c2cccc1Cc1cc(CCCP(=O)(O)O)cc(c1O)Cc1cccc(c1OCCC(C)C)Cc1cc(CCCP(=O)(O)O)cc(c1O)C2` [Compound 48], the IC50 in test [1] (Table 2) is over 5 µM; in test [1] (Table 3, errors estimated ±30%), over 5 µM; in test [2] (setting [4]), over 5 µM; in test [2] (setting [3]), over 5 µM; in the test on LPS from P. aeruginosa (Table 2), over 5 µM; with LPS from P. aeruginosa (Table 3, errors estimated ±30%), over 5 µM. Also, the IC50 in the test with LPS from K. pneumoniae (Table 2) is over 5 µM; with LPS from K. pneumoniae (Table 3, errors estimated ±30%), over 5 µM; with LPS from S. typhimurium (Table 2), over 5 µM; with LPS from S. typhimurium (Table 3, errors estimated ±30%) it was over 5 µM; in the test with LPS from S. marcascens (Table 2), over 5 µM; in the test on LPS from S. marcascens (Table 3, errors estimated ±30%) it was over 5 µM.
On to `CC(C)CCOc1c2cccc1Cc1cc(CCCOS(=O)(=O)O)cc(c1O)Cc1cccc(c1OCCC(C)C)Cc1cc(CCCOS(=O)(=O)O)cc(c1O)C2` [Compound 49], for which the IC50 in test [1] (Table 2) is 5 µM; in test [1] (Table 3, errors estimated ±30%), 5 µM; in test [2] (setting [4]), 5 µM; in test [2] (setting [3]) it was 5 µM; in the test with LPS from P. aeruginosa (Table 2), over 5 µM; in the test with LPS from P. aeruginosa (Table 3, errors estimated ±30%) it was over 5 µM. Moreover, the IC50 with LPS from K. pneumoniae (Table 2) is 2.1 µM; in the test on LPS from K. pneumoniae (Table 3, errors estimated ±30%), 2.1 µM; with LPS from S. typhimurium (Table 2) it was over 5 µM; in the test with LPS from S. typhimurium (Table 3, errors estimated ±30%), over 5 µM; with LPS from S. marcascens (Table 2), 4.2 µM; in the test on LPS from S. marcascens (Table 3, errors estimated ±30%), 4.2 µM.
Regarding polymyxin B [PmxB, reference compound], the IC50 is 0.03 µM in test [1] (Table 2); 0.03 µM in test [1] (Table 3, errors estimated ±30%); 0.03 µM in test [2] (setting [4]); 0.03 µM in test [2] (setting [3]); 0.003 µM in the test with LPS from P. aeruginosa (Table 2); 0.003 µM in the test with LPS from P. aeruginosa (Table 3, errors estimated ±30%). Moreover, the IC50 in the test with LPS from K. pneumoniae (Table 2) is 0.01 µM; with LPS from K. pneumoniae (Table 3, errors estimated ±30%) it was 0.01 µM; in the test on LPS from S. typhimurium (Table 2), 0.1 µM; with LPS from S. typhimurium (Table 3, errors estimated ±30%) it was 0.3 µM; in the test on LPS from S. marcascens (Table 2), over 5 µM; in the test with LPS from S. marcascens (Table 3, errors estimated ±30%), over 5 µM.
